In patent US20070269420A1, “Compounds, Compositions and Methods for Treatment and Prophylaxis of Hepatitis C Viral Infections and Associated Diseases” (priority 2003, published 2007):

Tests used:
Huh-7 cells = assay type: cell-based; details: human, 5 day
Procedure: (§1) The cellular toxicity of Compound A at different concentrations was assessed on different cell lines following crystal violet staining (qualitative cell proliferation assay) after 5 day incubation. Huh7 cells are human hepatoma cells. A genotype 1b replicon-containing cell line derived from Huh7 cells (Clone-A) was obtained from Apath, LLC. Clone-A cells were selected under Compound B drug pressure and a resistant clone was selected (559^R) which contained mutations in NS4B gene.

HCV NS4B = molecular target: T1, HCV NS4B (Hepatitis C virus genotype 1b, UniProt Q9WMX2); experiment: NS4B binding assay (quenching of intrinsic protein fluorescence); details: fluorescent binding assay
T1 construct: NS4B was cloned, expressed and purified to establish an assay; made in house
Description: NS4B was cloned, expressed and purified to establish an assay, which takes advantage of the intrinsic fluorescent properties of proteins and identifies compounds, which inhibit by a NS4B specific mechanism. This protein is necessary for viral replication. It is thought to act as an anchor securing the replication complex to cellular membranes, where replication is known to occur. Several other functions necessary for viral replication have also ascribed to NS4B.

Clone-A cells [1] = experiment: Crystal violet qualitative cell proliferation assay, 5 day incubation, Clone-A; assay type: cell-based, human; details: crystal violet staining
Procedure: as §1

[2] = system: HCV replicon (BB7 sequence) in Huh-7-Clone A cells; experiment: HCV replicon NS5A ELISA, inhibition of viral RNA replication; assay type: cell-based, hepatitis C virus; details: measured by Elisa and quantitative RT-PCR, Clone-A cells
Procedure: Antiviral activity of representative compounds of the invention was evaluated in a human liver-derived cell line (Huh-7-Clone A) containing the HCV replicon (BB7 sequence) (See Lohmann et al. Science. 1999, 285:110-3; Blight K J et al., Science. 2000, 290:1972-4; Pietschmann, T. et al., J. Virol. 2001, 73:1252-1264; and Lohmann, V. et al., J. Virol. 2001, 75:1437-1449). The HCV replicon is a subgenomic viral RNA that expresses the HCV proteins required for its own replication. These proteins include non-structural proteins NS3, NS4A, NS4B, NS5A and NS5B. The replicon also contains a foreign gene encoding a drug-selectable marker (neomycin phosphotransferase) to allow for G418 (neomycin) selection of cells that contain the replicon.
An ELISA (enzyme-linked immunosorbant assay) was used to determine the effect of compounds within the scope of the invention on the amount of HCV NS5A protein produced after a 72-hour incubation of the replicon-containing cells in the presence of varying concentrations of compound. Huh7-Clone A cells were seeded in 96-well plates at a subconfluent density (9000 cells/well) in medium containing 2% FBS and incubated for 4 hours to allow attachment to occur. HCV-086 (solubilized with 100% dimethylsulfoxide [DMSO]) was added to wells using an 8-point, 3-fold serial dilution series, with a final DMSO concentration of 1% in a total volume of 200 μL. Plates were incubated for 72 hours at 37° C. and 5% CO2. Under these conditions, the cells are approximately 25% confluent at the time of seeding and 80-90% confluent on day 3. COSTAR® 96-well cell culture plates were used but other known cell culture plates may be used. After incubation, media is removed from wells and the cells are fixed to the assay plate using 0.05% glutaraldehyde (Fisher # 02957-4). The glutaraldehyde is then washed off using phosphate-buffered saline (PBS) following a 1 hour incubation and cells are blocked for non-specific antibody binding using for example SUPERBLOCK® reagent (blocking buffer) in PBS. The blocking agent is rinsed from the cells with PBS after 1 hour at 37° C., and HCV NS5A monoclonal antibody (Virostat # 1873) is added to each well containing compound. Primary antibody is incubated for 1 hour at 37° C. and rinsed 3 times with PBS containing 0.02% TWEEN-20™ before addition of Horseradish Peroxidase (HRP) conjugated secondary antibody. HRP is incubated for 1 hour at 37° C. and rinsed several times, first with PBS/TWEEN-20™ followed by PBS alone. To quantify peroxidase activity, 3,3′,5,5′-tetramethylbenzidine (TMB) substrate is added to the plate and after 30 minutes, the plates are read in an ELISA plate reader at an OD of 650 nm.
Compound dose response was measured in an 8-point dose curve diluted serially to determine the inhibitory concentration at 50% (EC50 value). […] Ranges of 50% effective concentrations (EC50s) for the representative compounds within the scope of this invention are listed in Tables 1-8. Preferred compounds have 50% effective concentrations at about 30 μM or less, more preferred compounds have 50% effective concentrations at about 5 μM or less, and most preferred compounds have 50% effective concentrations at about 0.5 μM or less.

559^R cells = experiment: Crystal violet qualitative cell proliferation assay, 5 day incubation, resistant clone; assay type: cell-based, human; details: crystal violet staining
Procedure: as §1

Clone-A cells [3] = experiment: Genomic DNA fragmentation by agarose gel electrophoresis; assay type: cell-based, human; details: Huh7, Clone-A and 559^R treated
Procedure: DNA fragmentation is a measure of apoptotic cell death. Huh7, Clone-A and 559^R were treated with Compound B and genomic DNA fragmentation determined by agarose gel electrophoresis.

T1 sequence (Q9WMX2 1712-1972): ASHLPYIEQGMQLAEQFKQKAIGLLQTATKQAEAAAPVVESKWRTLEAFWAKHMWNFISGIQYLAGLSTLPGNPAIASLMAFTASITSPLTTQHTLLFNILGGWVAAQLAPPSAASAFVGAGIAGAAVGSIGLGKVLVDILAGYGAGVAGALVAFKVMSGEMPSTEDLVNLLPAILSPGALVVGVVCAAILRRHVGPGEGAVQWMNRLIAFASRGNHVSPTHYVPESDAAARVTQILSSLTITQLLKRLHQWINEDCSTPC

Row | Structure (SMILES) | cellular toxicity (Huh-7 cells) | binding activity towards purified HCV NS4B (HCV NS4B) | cellular toxicity (Clone-A cells [1]) | activity against HCV-replicon [2] | cellular toxicity (559^R cells) | genomic DNA fragmentation (apoptose) (Clone-A cells [3])
1 | Cc1nn(-c2nnc3c4ccccc4n(C)c3n2)c(C)c1-c1ccccc1 [Compound A, 2-(3,5-dimethyl-4-phenyl-pyrazol-1-yl)-9-methyl-9H-1,3,4,9-tetraaza-fluorene] | ~30 µM | demonstrated binding activity | ~3 µM | demonstrated activity | ~30 µM | –
2 | CCCCc1c(C)nn(-c2nnc3c4ccccc4n(CC)c3n2)c1C [Compound B, 2-(4-butyl-3,5-dimethyl-pyrazol-1-yl)-9-ethyl-9H-1,3,4,9-tetraaza-fluorene] | – | demonstrated binding activity | – | demonstrated activity | – | cause DNA fragmentation (apoptose) in Clone-A cells only
